Measured values from patent publication US6562848B1, “Bis-amino acid sulfonamides as HIV protease inhibitors” (Bristol-Myers Squibb Company, priority 2001, dated 2003).

melting point: 205 to 206 °C
Structure (SMILES): CC(C)CN(C[C@@H](O)[C@H](Cc1ccccc1)NC(=O)[C@@H](NC(=O)CNC(=O)C(C)C)C(C)(C)C)S(=O)(=O)c1ccc2c(c1)OCO2 (stereo in doubt)
